Dmax and DC50 data for eleven compounds are collected here from patent publication US20250206732A1, “COMPOUNDS AND METHODS FOR THE TARGETED DEGRADATION OF KRAS” (Arvinas Operations, Inc., priority 2022, published 2025).

Molecules are shown by their SMILES.

The assay deals with T1, AsPC-1 HiBiT-KRASG12D (Homo sapiens, UniProt P01116, G12D).
T1 construct: insert the HiBiT tag onto the N-terminus of one or more of the endogenous KRAS alleles; endogenous in cells; host or cells: AsPC-1 (ATCC CRL-1682), CRISPR-Cas9 knock-in clone, one tagged allele
Kind of assay: HiBiT degradation assay (G12D), AsPC-1 HiBiT-KRASG12D cells. It counts as cell-based. The conditions noted are these: 24 hours treatment; for Dmax: ASPC1, AsPC-1 HiBiT-KRASG12D cells, maximum degradation observed; for DC50: AsPC-1 HiBiT-KRASG12D cells, HiBiT luminescence. The essentials:
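24 h cmpd treatment, 37° C/5% CO2, AsPC-1 HiBiT-KRASG12D clone (CRISPR N-term tag). Alamar blue 1×, 4 h, fluorescence. PBS wash, Nano-Glo HiBiT lytic reagent, 45 min RT, luminescence. Triplicates.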
In general terms: The HiBiT peptide binds its large partner to form an active luciferase.

T1 sequence (P01116 1-188 isoform P01116-2 G12D): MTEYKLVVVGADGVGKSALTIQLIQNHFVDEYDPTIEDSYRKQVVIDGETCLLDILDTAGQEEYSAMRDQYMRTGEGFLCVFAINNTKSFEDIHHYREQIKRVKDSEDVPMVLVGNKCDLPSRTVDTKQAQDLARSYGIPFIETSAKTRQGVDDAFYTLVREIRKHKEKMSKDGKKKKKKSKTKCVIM

What is called Dmax is the largest share of the target that was removed. High values mean deep degradation, low ones shallow degradation. As usually defined, the DC50 is the concentration at which degradation of the target reaches its halfway point. Low values mean a more potent degrader, high ones a less potent degrader. The compound `CCc1cccc2cc(O)cc(-c3ncc4c(N5CC6CCC(C5)N6)nc(OC[C@]56CCCN5[C@H](COC(=O)N5CC(Oc7cc([C@@H](C(=O)N8C[C@H](O)C[C@H]8C(=O)N[C@@H](C)c8ccc(-c9scnc9C)cc8)C(C)C)on7)C5)CC6)nc4c3F)c12` [Compound 129, [(3S,7aR)-7a-{[(4-{3,8-diazabicyclo[3.2.1]octan-3-yl}-7-(8-ethyl-3-hydroxynaphthalen-1-yl)-8-fluoropyrido[4,3-d]pyrimidin-2-yl)oxy]methyl}-hexahydro-1H-pyrrolizin-3-yl]methyl 3-({5-[(2S)-1-[(2S,4R)-4-hydroxy-2-{[(1S)-1-[4-(4-methyl-1,3-thiazol-5-yl)phenyl]ethyl]carbamoyl}pyrrolidin-1-yl]-3-methyl-1-oxobutan-2-yl]-1,2-oxazol-3-yl}oxy)azetidine-1-carboxylate] came in with a Dmax of 60 to 80% and a DC50 below 600 nM.
For `CCc1cccc2cc(O)cc(-c3ncc4c(N5CC6CCC(C5)N6)nc(OC[C@]56CCCN5[C@H](COC(=O)N5CCN(c7cc([C@H](C(=O)N8C[C@H](O)C[C@H]8C(=O)N[C@@H](C)c8ccc(-c9scnc9C)cc8)C(C)C)on7)[C@H](C)C5)CC6)nc4c3F)c12` [Compound 130, [(3S,7aR)-7a-{[(4-{3,8-diazabicyclo[3.2.1]octan-3-yl}-7-(8-ethyl-3-hydroxynaphthalen-1-yl)-8-fluoropyrido[4,3-d]pyrimidin-2-yl)oxy]methyl}-hexahydro-1H-pyrrolizin-3-yl]methyl (3R)-4-{5-[(2R)-1-[(2S,4R)-4-hydroxy-2-{[(1S)-1-[4-(4-methyl-1,3-thiazol-5-yl)phenyl]ethyl]carbamoyl}pyrrolidin-1-yl]-3-methyl-1-oxobutan-2-yl]-1,2-oxazol-3-yl}-3-methylpiperazine-1-carboxylate], the Dmax is 80 to 100% and the DC50 is below 600 nM.
In turn, `CCc1cccc2cc(O)cc(-c3ncc4c(N5CC6CCC(C5)N6)nc(OC[C@]56CCCN5[C@H](COC(=O)N5CCN(c7cc([C@@H](C(=O)N8C[C@H](O)C[C@H]8C(=O)N[C@@H](C)c8ccc(-c9scnc9C)cc8)C(C)C)on7)[C@H](C)C5)CC6)nc4c3F)c12` [Compound 131, [(3S,7aR)-7a-{[(4-{3,8-diazabicyclo[3.2.1]octan-3-yl}-7-(8-ethyl-3-hydroxynaphthalen-1-yl)-8-fluoropyrido[4,3-d]pyrimidin-2-yl)oxy]methyl}-hexahydro-1H-pyrrolizin-3-yl]methyl (3R)-4-{5-[(2S)-1-[(2S,4R)-4-hydroxy-2-{[(1S)-1-[4-(4-methyl-1,3-thiazol-5-yl)phenyl]ethyl]carbamoyl}pyrrolidin-1-yl]-3-methyl-1-oxobutan-2-yl]-1,2-oxazol-3-yl}-3-methylpiperazine-1-carboxylate] came in with a Dmax below 20% and a DC50 below 600 nM.
Consider `CCc1cccc2cc(O)cc(-c3ncc4c(N5CC6CCC(C5)N6)nc(OC[C@]56CCCN5[C@H](COC(=O)N5CCN(c7cc([C@H](C(=O)N8C[C@H](O)C[C@H]8C(=O)N[C@@H](C)c8ccc(-c9scnc9C)cc8)C(C)C)on7)C[C@@H]5C)CC6)nc4c3F)c12` [Compound 132, [(3S,7aR)-7a-{[(4-{3,8-diazabicyclo[3.2.1]octan-3-yl}-7-(8-ethyl-3-hydroxynaphthalen-1-yl)-8-fluoropyrido[4,3-d]pyrimidin-2-yl)oxy]methyl}-hexahydro-1H-pyrrolizin-3-yl]methyl (2S)-4-{5-[(2R)-1-[(2S,4R)-4-hydroxy-2-{[(1S)-1-[4-(4-methyl-1,3-thiazol-5-yl)phenyl]ethyl]carbamoyl}pyrrolidin-1-yl]-3-methyl-1-oxobutan-2-yl]-1,2-oxazol-3-yl}-2-methylpiperazine-1-carboxylate], for which the Dmax is 80 to 100% and the DC50 was below 600 nM.
Compound `CCc1cccc2cc(O)cc(-c3ncc4c(N5CC6CCC(C5)N6)nc(OC[C@]56CCCN5[C@H](COC(=O)N5CCN(c7cc([C@@H](C(=O)N8C[C@H](O)C[C@H]8C(=O)N[C@@H](C)c8ccc(-c9scnc9C)cc8)C(C)C)on7)C[C@@H]5C)CC6)nc4c3F)c12` [Compound 133, [(3S,7aR)-7a-{[(4-{3,8-diazabicyclo[3.2.1]octan-3-yl}-7-(8-ethyl-3-hydroxynaphthalen-1-yl)-8-fluoropyrido[4,3-d]pyrimidin-2-yl)oxy]methyl}-hexahydro-1H-pyrrolizin-3-yl]methyl (2S)-4-{5-[(2S)-1-[(2S,4R)-4-hydroxy-2-{[(1S)-1-[4-(4-methyl-1,3-thiazol-5-yl)phenyl]ethyl]carbamoyl}pyrrolidin-1-yl]-3-methyl-1-oxobutan-2-yl]-1,2-oxazol-3-yl}-2-methylpiperazine-1-carboxylate] returned a Dmax below 20% and a DC50 below 600 nM.
Taken in the same sequence, the figures for `CCc1cccc2cc(O)cc(-c3ncc4c(N5CC6CCC(C5)N6)nc(OC[C@]56CCCN5[C@H](COC(=O)N5CC7(C5)CN(c5cc([C@@H](C(=O)N8C[C@H](O)C[C@H]8C(=O)N[C@@H](C)c8ccc(-c9scnc9C)cc8)C(C)C)on5)C7)CC6)nc4c3F)c12` [Compound 144, [(3S,7aR)-7a-{[(4-{3,8-diazabicyclo[3.2.1]octan-3-yl}-7-(8-ethyl-3-hydroxynaphthalen-1-yl)-8-fluoropyrido[4,3-d]pyrimidin-2-yl)oxy]methyl}-hexahydro-1H-pyrrolizin-3-yl]methyl 6-{5-[(2S)-1-[(2S,4R)-4-hydroxy-2-{[(1S)-1-[4-(4-methyl-1,3-thiazol-5-yl)phenyl]ethyl]carbamoyl}pyrrolidin-1-yl]-3-methyl-1-oxobutan-2-yl]-1,2-oxazol-3-yl}-2,6-diazaspiro[3.3]heptane-2-carboxylate] were 20 to 60% and 600 to 1000 nM.
`C#Cc1c(F)ccc2cc(O)cc(-c3ncc4c(N5CC6CCC(C5)N6)nc(OCCN5CCC(F)(COc6cc([C@H](C(=O)N7C[C@H](O)C[C@H]7C(=O)N[C@@H](C)c7ccc(-c8scnc8C)cc7)C(C)C)on6)CC5)nc4c3F)c12` [Compound 153, (2S,4R)-1-[(2R)-2-{3-[(1-{2-[(4-{3,8-diazabicyclo[3.2.1]octan-3-yl}-7-(8-ethynyl-7-fluoro-3-hydroxynaphthalen-1-yl)-8-fluoropyrido[4,3-d]pyrimidin-2-yl)oxy]ethyl}-4-fluoropiperidin-4-yl)methoxy]-1,2-oxazol-5-yl}-3-methylbutanoyl]-4-hydroxy-N-[(1S)-1-[4-(4-methyl-1,3-thiazol-5-yl)phenyl]ethyl]pyrrolidine-2-carboxamide]: the Dmax lay in the range of 80 to 100% and the DC50 was below 600 nM.
The compound `C#Cc1c(F)ccc2cc(O)cc(-c3ncc4c(N5CC6CCC(C5)N6)nc(OCCN5CCC(F)(COc6cc([C@@H](C(=O)N7C[C@H](O)C[C@H]7C(=O)N[C@@H](C)c7ccc(-c8scnc8C)cc7)C(C)C)on6)CC5)nc4c3F)c12` [Compound 154, (2S,4R)-1-[(2S)-2-{3-[(1-{2-[(4-{3,8-diazabicyclo[3.2.1]octan-3-yl}-7-(8-ethynyl-7-fluoro-3-hydroxynaphthalen-1-yl)-8-fluoropyrido[4,3-d]pyrimidin-2-yl)oxy]ethyl}-4-fluoropiperidin-4-yl)methoxy]-1,2-oxazol-5-yl}-3-methylbutanoyl]-4-hydroxy-N-[(1S)-1-[4-(4-methyl-1,3-thiazol-5-yl)phenyl]ethyl]pyrrolidine-2-carboxamide] came in with a Dmax of 80 to 100% and a DC50 below 600 nM.
The compound `CCc1cccc2cc(O)cc(-c3ncc4c(N5CC6CCC(C5)N6)nc(OCCN5CCC(F)(CN6CCN(c7cnc(C(=O)N[C@H](C(=O)N8C[C@H](O)C[C@H]8C(=O)N[C@@H](C)c8ccc(-c9scnc9C)cc8)C(C)(C)C)cn7)CC6)CC5)nc4c3F)c12` [Compound 155, 5-{4-[(1-{2-[(4-{3,8-diazabicyclo[3.2.1]octan-3-yl}-7-(8-ethyl-3-hydroxynaphthalen-1-yl)-8-fluoropyrido[4,3-d]pyrimidin-2-yl)oxy]ethyl}-4-fluoropiperidin-4-yl)methyl]piperazin-1-yl}-N-[(2S)-1-[(2S,4R)-4-hydroxy-2-{[(1S)-1-[4-(4-methyl-1,3-thiazol-5-yl)phenyl]ethyl]carbamoyl}pyrrolidin-1-yl]-3,3-dimethyl-1-oxobutan-2-yl]pyrazine-2-carboxamide] came in with a Dmax of 60 to 80% and a 50% degradation concentration (DC50) below 600 nM.
As to `C#Cc1c(F)ccc2cc(O)cc(-c3ncc4c(N5CC6CCC(C5)N6)nc(OCCN5CCC(CC6CN(c7cc([C@H](C(=O)N8C[C@H](O)C[C@H]8C(=O)N[C@@H](C)c8ccc(-c9ccnn9C)cc8)C(C)C)on7)C6)CC5)nc4c3F)c12` [Compound 156, (2S,4R)-1-[(2R)-2-(3-{3-[(1-{2-[(4-{3,8-diazabicyclo[3.2.1]octan-3-yl}-7-(8-ethynyl-7-fluoro-3-hydroxynaphthalen-1-yl)-8-fluoropyrido[4,3-d]pyrimidin-2-yl)oxy]ethyl}piperidin-4-yl)methyl]azetidin-1-yl}-1,2-oxazol-5-yl)-3-methylbutanoyl]-4-hydroxy-N-[(1S)-1-[4-(1-methyl-1H-pyrazol-5-yl)phenyl]ethyl]pyrrolidine-2-carboxamide], the Dmax fell in the range of 80 to 100% and the DC50 was below 600 nM.
Taken in the same sequence, the figures for `C#Cc1c(F)ccc2cc(O)cc(-c3ncc4c(N5CC6CCC(C5)N6)nc(OCCN5CCC(CC6(F)CCN(CC(=O)N[C@H](C(=O)N7C[C@H](O)C[C@H]7C(=O)N[C@@H](C)c7ccc(-c8scnc8C)cc7)C(C)(C)C)CC6)CC5)nc4c3F)c12` [Compound 157, (2S,4R)-1-[(2S)-2-(2-{4-[(1-{2-[(4-{3,8-diazabicyclo[3.2.1]octan-3-yl}-7-(8-ethynyl-7-fluoro-3-hydroxynaphthalen-1-yl)-8-fluoropyrido[4,3-d]pyrimidin-2-yl)oxy]ethyl}piperidin-4-yl)methyl]-4-fluoropiperidin-1-yl}acetamido)-3,3-dimethylbutanoyl]-4-hydroxy-N-[(1S)-1-[4-(4-methyl-1,3-thiazol-5-yl)phenyl]ethyl]pyrrolidine-2-carboxamide] were 80 to 100% and below 600 nM.
